The values that follow come from US7622488B2, “Use of a pyrazole derivative for preparing medicines useful for treating renal diseases” (sanofi-aventis, priority 2005, dated 2009).

For one series, the system named is obese patients. To be noted: clinical studies, cited from earlier work.
For the next series, the system named is Zucker fa/fa obese rats. The series can be described thus: Long-term treatment (12 months) of Zucker fa/fa obese rats with established obesity; protection of renal function. The format is in vivo. To be noted: for mortality: after 12 months, untreated obese rats 64%. The procedure:
The Zucker obese rat strain fa/fa is characterized by hyperphagia, obesity, dyslipidemia aid type 2 diabetes resulting in the gradual development of a nephropathy.
A group of Zucker fa/fa obese rats that were not treated, but received the same amount of food as the group treated with 10 mg/kg/day per os, was also formed (pair-fed group).

Setting [1] is: Zucker fa/fa obese rats, 3 and 10 mg/kg/day per os for 12 months, vs vehicle.
Setting [2] is: after 12 months of treatment, 3 and 10 mg/kg/day.

As for `Cc1c(C(=O)NN2CCCCC2)nn(-c2ccc(Cl)cc2Cl)c1-c1ccc(Cl)cc1` [rimonabant, N-piperidino-5-(4-chlorophenyl)-1-(2,4-dichlorophenyl)-4-methylpyrazole-3-carboxamide], the “body weight of obese patients” value in the series with obese patients (obese patients) is “reduces”. In the series with obese patients, the food intake result is “acts on food intake in quantitative and qualitative terms”. Besides, the mortality – broadly, the percentage killed – with Zucker fa/fa obese rats (3 mg/kg/day per os, p<0.05) came to 28%. The mortality in the series on Zucker fa/fa obese rats (10 mg/kg/day per os, p<0.01) is 20%. The “survival of the Zucker fa/fa obese rats” value with Zucker fa/fa obese rats (3 and 10 mg/kg/day per os) is “very significantly prolongs”. For the same molecule, in the series on Zucker fa/fa obese rats (setting [1]), the creatinine clearance entry is reported as “partially restored”, the “increase in plasma creatinine level” value is recorded as “decreased in a dose-dependent manner” and the “increase in plasma urea level” value is “decreased in a dose-dependent manner”. The renal hypertrophy entry with Zucker fa/fa obese rats (Zucker fa/fa obese rats, 12 months treatment, vs vehicle) is “significantly reduced”. In addition, in the series on Zucker fa/fa obese rats (setting [2]), the contractility entry is on record as “remain unchanged”, the heart rate entry is on record as “remain unchanged”, the left ventricular pressure entry is “remain unchanged” and the mean arterial pressure entry is on record as “remain unchanged”. Further, the protienuria result in the series on Zucker fa/fa obese rats (chronic treatment, 3 and 10 mg/kg/day per os) is recorded as “significantly delays”.
